Source: US12447151B2, “Alkyne derivative, preparation method for same, and uses thereof” (ZHEJIANG HISUN PHARMACEUTICAL CO., LTD., priority 2019, dated 2025)

Columns and labels:
[1] = biological target: recombinant human PI3Kδ (Homo sapiens (Human), UniProt O00329); test: Inhibitory activity on PI3K kinase (ADP-Glo Kinase Assay)
Source text: The following method is used to determine the degree of inhibition of recombinant human PI3Kα, PI3Kβ, PI3Kγ and PI3Kδ kinase activity by the compounds of the present invention under in vitro conditions. Promega's ADP-Glo Kinase Assay Kit (Cat. No. V9102) was used in this method. The above kit was a luminescence kinase detection kit, which was used to detect the ADP content produced by the kinase reaction. The ADP content was positively correlated with the kinase activity. By measuring the ADP content, the inhibition of the compound on the activity of PI3Kα, PI3Kβ, PI3Kγ and PI3Kδ kinases was reflected. […] Recombinant human PI3Kα, PI3Kγ, and PI3Kδ were purchased from Invitrogen, and PI3Kβ was purchased from Promega (category numbers were PI3Kα: PV4788; PI3Kβ: V1751; PI3Kγ: PV4786 and PI3Kδ: PV6451 separately).

[2] = biological target: PI3Kβ(PC-3) (Homo sapiens (Human), UniProt P42338); test: Cell activity of PI3K subtypes, AlphaLISA p-AKT (pS473); format: cell-based; settings: PC-3 cells, LPA stimulated
Source text: (§1) The following method was used to determine the degree of inhibition of the compounds of the present invention on activity of PI3Kα, PI3Kβ, PI3Kγ, and PI3Kδ kinase in different cells. The AlphaLISA SureFire Ultra p-AKT1/2/3 (pS473) kit (#ALSU-PAKT-B500) of PE company was used in the method. The above kit used AlphaLISA technology, using donor and acceptor beads to detect the interaction of biomolecules, to detect the content of p-AKT (pS473), reflecting the intensity of inhibition of the compounds on PI3Kα, PI3Kβ, PI3Kγ and PI3Kδ at the cell level. For detailed experimental operations, please refer to the kit instructions.
(§2) The experimental procedure was briefly described as follows: the experiment was carried out in a 384-well plate using a Multidrop dispenser (Thermo, #836-4049), using different cells for different PI3K subtypes (PI3Kα: C2C12 cells (myoblasts); PI3Kβ: PC-3 cells (human prostate cancer cells); PI3Kγ: Raw264.7 cells (monocyte macrophages); PI3Kδ: Raji cells (lymphoma cells)). 6 μL of the corresponding cells were transferred to the wells of a 384-well plate. After centrifugation 500 RPM for 30 seconds, the plate was placed in a 37° C., 5% CO2 incubator for 2 hours. The test compound was first dissolved in DMSO to prepare a 10 mM stock solution, which was diluted 4-fold with DMSO. 30 nL was transferred by Echo (Labcyte, #550) to each well (final concentration is 10000 nM-0.2 nM), and incubated for 30 minutes. Then for C2C12 cells used for PI3Kα subtype, 2 uL IGF-1 (R&D, #291-G1-200, final concentration 1200 ng/mL) was added and incubated for 20 minutes. For PC-3 cells used for PI3Kβ subtype, 2 μL LPA (Sigma, #L7260, final concentration 15 ug/mL) was added and incubated for 20 minutes. For Raw264.7 cells used for PI3Kγ subtype, 2 uL C5a (Biotang, #RPR9899, final concentration 80 ng/mL) was added and incubated for 5 minutes. For Raji cells used for PI3Kδ subtype, 2 μL IgM (Jackson ImmunoResearch, #109-006-129, final concentration 3 ug/mL) was added and incubated for 10 minutes. After the incubation, AlphaLISA SureFire Ultra p-AKT1/2/3(pS473) kit was used to determine the AlphaLISA signal. The kit determination method was briefly described as follows: 20 μL Lysis Buffer was used to lyse the cells for 10 minutes. Then 5 uL acceptor mix and 5 uL donor mix were added to a 384-well plate. The plate was incubated with shaking at room temperature for 2 hours. Envision (PE, #2104) was used to read AlphaLISA signal. By comparing with the signal intensity ratio of the control group (0.5% DMSO), the percentage inhibition rate of the compound at each concentration was calculated. The GraphPad Prism 5 software was used to perform nonlinear regression analysis of the compound concentration logarithmic value vs. the inhibition rate to obtain the IC50 values of the compounds, shown in Table 3.

[3] = biological target: PI3Kδ(Raji) (Homo sapiens (Human), UniProt O00329); test: as above; format: cell-based; settings: Raji cells, IgM stimulated
Source text: as §1, §2

[4] = biological target: PI3Kα(C2C12) (Mus musculus (Mouse), UniProt P42337); test: as above; format: cell-based; settings: C2C12 cells, IGF-1 stimulated
Source text: as §1, §2

[5] = biological target: PI3Kγ(Raw264.7) (Mus musculus (Mouse), UniProt Q9JHG7); test: as above; format: cell-based
Source text: as §1, §2

[6] = Oral pharmacokinetics in SD rats; format: in vivo; settings: male, rat, plasma, Oral (5 mg/kg)
Protocol: Using SD rats as test animals, the rats were intragastrically administrated with the compound of the present invention. LC/MS/MS method was used to determine the drug concentration in the plasma at different times to study the pharmacokinetic characteristics of the compound of the present invention in rats.
An appropriate amount of the compound to be tested was weighed, and 0.5% sodium carboxymethylcellulose (containing 0.05% Tween80) was added. The mixture was vortexed, and sonicated so that the solid was ultrasonically dispersed uniformly to obtain a suspension. 100 μL×2 of the filtered preparation were aspirated, and placed in 1.5-mL EP tubes, stored at […]. The concentration of the preparation was 0.5 mg/mL.
Nine healthy adult male SD rats were fasted overnight and then intragastrically administered (dosage of administration was 5 mg/kg), and fed 4 hours after administration.
About 0.2 mL of blood was collected from the jugular vein at 0.083 hours, 0.25 hours, 0.5 hours, 1 hour, 2 hours, 4 hours, 8 hours, 12 hours, and 24 hours after administration, and heparin sodium was used for anticoagulation. The collected blood samples were placed on ice and centrifuged to separate the plasma (centrifugation conditions: 1500 g, 10 minutes). The collected plasma was stored at −40 to −20° C. before analysis. The LC-MS/MS method was used to determine the content of the test compound in the plasma of SD rats after intragastric administration of different compounds.

[7] = biological target: recombinant human PI3Kγ (Homo sapiens (Human), UniProt P48736); test: Inhibitory activity on PI3K kinase (ADP-Glo Kinase Assay); format: biochemical
Source text: The following method is used to determine the degree of inhibition of recombinant human PI3Kα, PI3Kβ, PI3Kγ and PI3Kδ kinase activity by the compounds of the present invention under in vitro conditions. Promega's ADP-Glo Kinase Assay Kit (Cat. No. V9102) was used in this method. The above kit was a luminescence kinase detection kit, which was used to detect the ADP content produced by the kinase reaction. The ADP content was positively correlated with the kinase activity. By measuring the ADP content, the inhibition of the compound on the activity of PI3Kα, PI3Kβ, PI3Kγ and PI3Kδ kinases was reflected. For detailed experimental operations, please refer to the kit instructions. Recombinant human PI3Kα, PI3Kγ, and PI3Kδ were purchased from Invitrogen, and PI3Kβ was purchased from Promega (category numbers were PI3Kα: PV4788; PI3Kβ: V1751; PI3Kγ: PV4786 and PI3Kδ: PV6451 separately).

PI3Kγ(Raw264.7), sequence (Q9JHG7 whole entry): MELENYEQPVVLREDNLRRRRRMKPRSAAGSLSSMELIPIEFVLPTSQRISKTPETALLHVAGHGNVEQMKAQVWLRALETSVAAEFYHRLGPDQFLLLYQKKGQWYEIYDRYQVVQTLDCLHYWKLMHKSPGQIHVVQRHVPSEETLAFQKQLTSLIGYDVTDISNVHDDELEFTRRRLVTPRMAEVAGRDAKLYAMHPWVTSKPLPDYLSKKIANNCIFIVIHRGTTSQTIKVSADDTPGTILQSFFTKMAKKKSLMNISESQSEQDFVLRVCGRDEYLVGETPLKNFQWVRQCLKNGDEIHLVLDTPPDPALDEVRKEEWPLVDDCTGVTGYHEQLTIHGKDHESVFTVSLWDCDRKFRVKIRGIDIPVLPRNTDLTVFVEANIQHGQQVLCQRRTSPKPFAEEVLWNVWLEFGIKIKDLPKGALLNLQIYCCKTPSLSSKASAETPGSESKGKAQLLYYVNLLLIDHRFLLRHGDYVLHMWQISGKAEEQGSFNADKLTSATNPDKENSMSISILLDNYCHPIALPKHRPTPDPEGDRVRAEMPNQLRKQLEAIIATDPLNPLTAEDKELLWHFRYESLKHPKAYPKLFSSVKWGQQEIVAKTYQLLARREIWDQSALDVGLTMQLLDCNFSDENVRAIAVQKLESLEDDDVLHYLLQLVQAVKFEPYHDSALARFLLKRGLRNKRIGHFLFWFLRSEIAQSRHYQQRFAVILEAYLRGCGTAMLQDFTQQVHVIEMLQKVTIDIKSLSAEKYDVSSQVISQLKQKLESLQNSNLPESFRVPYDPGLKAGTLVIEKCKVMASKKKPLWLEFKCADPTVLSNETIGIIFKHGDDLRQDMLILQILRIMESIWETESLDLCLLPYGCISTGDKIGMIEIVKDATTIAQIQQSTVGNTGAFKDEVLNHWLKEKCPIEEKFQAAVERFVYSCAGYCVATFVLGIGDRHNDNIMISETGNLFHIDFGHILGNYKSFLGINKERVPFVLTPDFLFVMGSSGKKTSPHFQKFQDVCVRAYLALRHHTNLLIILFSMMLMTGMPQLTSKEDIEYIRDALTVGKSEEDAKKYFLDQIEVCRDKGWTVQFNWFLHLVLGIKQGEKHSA
PI3Kγ(Raw264.7), sequence (Q5SW28 whole entry partner): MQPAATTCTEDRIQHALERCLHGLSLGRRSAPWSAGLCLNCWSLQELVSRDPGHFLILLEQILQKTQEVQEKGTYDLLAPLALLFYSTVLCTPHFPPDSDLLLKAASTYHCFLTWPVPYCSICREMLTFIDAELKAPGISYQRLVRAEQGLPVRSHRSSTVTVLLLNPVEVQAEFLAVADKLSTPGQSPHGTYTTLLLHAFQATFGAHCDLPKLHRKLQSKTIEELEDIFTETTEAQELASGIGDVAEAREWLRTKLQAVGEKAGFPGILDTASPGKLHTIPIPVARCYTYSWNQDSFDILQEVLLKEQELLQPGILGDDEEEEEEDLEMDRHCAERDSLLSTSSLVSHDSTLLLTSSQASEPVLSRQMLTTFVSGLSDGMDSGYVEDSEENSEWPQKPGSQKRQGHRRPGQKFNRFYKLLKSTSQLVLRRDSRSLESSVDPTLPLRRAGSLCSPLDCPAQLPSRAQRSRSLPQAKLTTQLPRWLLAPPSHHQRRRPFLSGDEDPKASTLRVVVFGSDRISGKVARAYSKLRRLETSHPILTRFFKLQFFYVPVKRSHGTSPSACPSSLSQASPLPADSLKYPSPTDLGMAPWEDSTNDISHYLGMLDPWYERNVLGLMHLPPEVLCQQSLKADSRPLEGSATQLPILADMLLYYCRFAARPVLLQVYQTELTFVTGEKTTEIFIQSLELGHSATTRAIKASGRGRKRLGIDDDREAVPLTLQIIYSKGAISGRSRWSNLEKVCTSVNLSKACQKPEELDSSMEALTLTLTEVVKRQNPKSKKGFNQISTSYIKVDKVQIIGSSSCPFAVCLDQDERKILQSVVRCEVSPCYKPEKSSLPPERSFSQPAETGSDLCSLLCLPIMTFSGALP
recombinant human PI3Kγ, sequence (P48736 whole entry): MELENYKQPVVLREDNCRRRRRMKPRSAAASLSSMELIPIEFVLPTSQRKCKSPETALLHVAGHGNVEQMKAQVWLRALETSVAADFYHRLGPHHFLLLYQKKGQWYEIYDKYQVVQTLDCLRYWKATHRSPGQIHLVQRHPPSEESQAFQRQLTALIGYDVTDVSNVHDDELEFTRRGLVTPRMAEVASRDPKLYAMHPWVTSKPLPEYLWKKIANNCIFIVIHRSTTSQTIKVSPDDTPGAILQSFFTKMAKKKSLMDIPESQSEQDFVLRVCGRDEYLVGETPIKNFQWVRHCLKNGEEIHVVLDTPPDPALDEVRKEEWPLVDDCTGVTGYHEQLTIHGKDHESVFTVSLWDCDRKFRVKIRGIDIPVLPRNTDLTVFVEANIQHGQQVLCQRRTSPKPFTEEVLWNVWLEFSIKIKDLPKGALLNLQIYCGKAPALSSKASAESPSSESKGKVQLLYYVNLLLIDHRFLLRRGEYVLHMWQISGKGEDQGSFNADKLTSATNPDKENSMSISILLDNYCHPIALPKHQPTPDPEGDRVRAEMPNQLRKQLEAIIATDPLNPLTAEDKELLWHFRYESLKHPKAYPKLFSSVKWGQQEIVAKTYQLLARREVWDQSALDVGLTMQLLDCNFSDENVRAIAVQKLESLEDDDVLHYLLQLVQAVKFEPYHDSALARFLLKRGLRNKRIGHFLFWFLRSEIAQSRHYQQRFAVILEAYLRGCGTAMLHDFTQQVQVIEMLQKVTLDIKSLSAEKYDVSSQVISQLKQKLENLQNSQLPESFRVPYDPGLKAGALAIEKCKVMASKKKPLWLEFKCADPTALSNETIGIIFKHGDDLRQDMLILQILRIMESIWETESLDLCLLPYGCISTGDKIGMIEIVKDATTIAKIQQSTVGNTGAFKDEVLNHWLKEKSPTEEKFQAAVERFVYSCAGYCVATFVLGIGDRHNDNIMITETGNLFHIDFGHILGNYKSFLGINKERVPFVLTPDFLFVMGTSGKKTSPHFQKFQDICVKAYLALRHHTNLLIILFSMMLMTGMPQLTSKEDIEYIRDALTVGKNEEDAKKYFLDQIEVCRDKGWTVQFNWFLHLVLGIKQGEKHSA
PI3Kβ(PC-3), sequence (P42338 whole entry): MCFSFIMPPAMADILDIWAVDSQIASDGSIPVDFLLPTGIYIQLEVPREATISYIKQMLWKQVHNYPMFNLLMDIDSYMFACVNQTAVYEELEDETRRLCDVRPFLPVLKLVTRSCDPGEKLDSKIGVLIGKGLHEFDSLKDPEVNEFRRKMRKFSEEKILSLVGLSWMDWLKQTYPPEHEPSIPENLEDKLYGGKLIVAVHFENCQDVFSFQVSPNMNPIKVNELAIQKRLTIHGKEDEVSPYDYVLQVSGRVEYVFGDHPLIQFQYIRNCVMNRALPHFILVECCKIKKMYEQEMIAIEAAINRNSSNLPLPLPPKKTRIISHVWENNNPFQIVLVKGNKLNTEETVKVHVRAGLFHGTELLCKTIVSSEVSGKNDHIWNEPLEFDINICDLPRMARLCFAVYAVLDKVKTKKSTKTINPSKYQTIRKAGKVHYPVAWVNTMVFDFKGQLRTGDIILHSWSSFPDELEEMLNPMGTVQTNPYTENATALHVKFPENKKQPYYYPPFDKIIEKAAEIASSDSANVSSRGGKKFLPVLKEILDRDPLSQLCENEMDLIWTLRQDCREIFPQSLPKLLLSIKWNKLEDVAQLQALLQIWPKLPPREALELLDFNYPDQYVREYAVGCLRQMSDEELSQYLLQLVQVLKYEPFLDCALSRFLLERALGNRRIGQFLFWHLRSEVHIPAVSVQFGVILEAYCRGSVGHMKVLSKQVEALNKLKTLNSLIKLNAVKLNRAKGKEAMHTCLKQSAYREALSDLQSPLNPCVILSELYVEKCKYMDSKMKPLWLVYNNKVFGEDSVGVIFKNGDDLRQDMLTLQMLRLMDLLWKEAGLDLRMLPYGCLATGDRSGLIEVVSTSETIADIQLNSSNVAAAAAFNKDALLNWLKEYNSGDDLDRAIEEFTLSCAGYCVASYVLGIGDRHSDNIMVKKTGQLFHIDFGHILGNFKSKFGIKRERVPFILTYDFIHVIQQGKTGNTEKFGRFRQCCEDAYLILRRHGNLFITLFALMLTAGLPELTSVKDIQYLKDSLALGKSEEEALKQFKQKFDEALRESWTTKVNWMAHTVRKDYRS
PI3Kβ(PC-3), sequence (P27986 whole entry partner): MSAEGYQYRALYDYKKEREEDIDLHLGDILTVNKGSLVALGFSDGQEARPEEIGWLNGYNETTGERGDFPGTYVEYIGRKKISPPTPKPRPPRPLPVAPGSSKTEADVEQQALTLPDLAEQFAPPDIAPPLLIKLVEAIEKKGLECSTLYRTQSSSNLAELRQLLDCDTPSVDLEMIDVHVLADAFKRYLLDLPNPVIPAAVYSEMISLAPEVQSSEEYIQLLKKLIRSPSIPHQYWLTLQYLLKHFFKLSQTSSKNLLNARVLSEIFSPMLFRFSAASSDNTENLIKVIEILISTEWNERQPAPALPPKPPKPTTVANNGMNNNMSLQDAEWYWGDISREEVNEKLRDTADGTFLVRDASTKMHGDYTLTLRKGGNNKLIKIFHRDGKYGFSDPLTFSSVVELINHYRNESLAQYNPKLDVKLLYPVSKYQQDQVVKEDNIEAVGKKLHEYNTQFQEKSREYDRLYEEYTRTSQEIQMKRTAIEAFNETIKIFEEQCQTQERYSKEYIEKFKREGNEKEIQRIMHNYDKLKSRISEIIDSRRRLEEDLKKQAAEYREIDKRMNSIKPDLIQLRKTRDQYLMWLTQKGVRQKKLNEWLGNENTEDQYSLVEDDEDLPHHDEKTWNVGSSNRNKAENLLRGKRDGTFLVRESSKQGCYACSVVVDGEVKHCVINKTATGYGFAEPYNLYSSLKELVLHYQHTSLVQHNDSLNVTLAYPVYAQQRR

**Q.** Which IC50 [1] does the source give for `C[C@H](NC(=O)c1c(N)nn2cccnc12)c1nc2cccc(C#Cc3cnn(C4CC4)c3)c2c(=O)n1-c1ccccc1` [Example 2, (S)-2-amino-N-(1-(5-((1-cyclopropyl-1H-pyrazol-4-yl)ethynyl)-4-oxo-3-phenyl-3,4-dihydroquinazolin-2-yl)ethyl)pyrazolo[1,5-a]pyrimidine-3-carboxamide] here?
**A.** Its IC50 is 191 nM.

**Q.** What about the IC50 [2] of the same compound?
**A.** The IC50 was 878 nM.

**Q.** What about the IC50 [3] of the same compound?
**A.** Its IC50 is 355 nM.

**Q.** And the IC50 [4]?
**A.** Its IC50 is 4770 nM.

**Q.** And the IC50 ([5]; Raw264.7 cells, C5a stimulated, p-AKT (pS473))?
**A.** Its IC50 is 3.42 nM.

**Q.** And the “IC50 (PI3Kα)/IC50(PI3Kγ)” value ([5]; cell selectivity, C2C12 vs Raw264.7)?
**A.** The value was 1394.

**Q.** What about the “IC50 (PI3Kβ)/IC50(PI3Kγ)” value ([5]; cell selectivity, PC-3 vs Raw264.7) of the same compound?
**A.** The value was 257.

**Q.** What about the “IC50 (PI3Kδ)/IC50(PI3Kγ)” value ([5]; cell selectivity, Raji vs Raw264.7) of the same compound?
**A.** Its value is 104.

**Q.** What about the AUC(0-inf) ([6]; read-out: Area under the curve AUC0-∞) of the same compound?
**A.** Its AUC(0-inf) is 11000 ng·h/mL.

**Q.** What about the bioavailability ([6]; read-out: Bioavailability F) of the same compound?
**A.** The bioavailability was 66%.

**Q.** And the half-life ([6]; read-out: Half-life period T1/2 (converted))?
**A.** The half-life was 4.1 h.

**Q.** What about the Cmax ([6]; read-out: Plasma concentration Cmax) of the same compound?
**A.** The Cmax was 1160 ng/mL.

**Q.** And the IC50 ([7]; ADP-Glo, ATP 10 μM)?
**A.** The IC50 was 0.58 nM.

**Q.** And the “IC50 (PI3Kα)/IC50(PI3Kγ)” value ([7]; kinase selectivity for PI3Kγ over PI3Kα)?
**A.** Its value is 370.

**Q.** What about the “IC50 (PI3Kβ)/IC50(PI3Kγ)” value ([7]; kinase selectivity for PI3Kγ over PI3Kβ) of the same compound?
**A.** Its value is 804.

**Q.** And the “IC50 (PI3Kδ)/IC50(PI3Kγ)” value ([7]; kinase selectivity for PI3Kγ over PI3Kδ)?
**A.** Its value is 330.
